One data set deals with DU145 cells. In words: Antiproliferative assay in DU145 cells, WST-1 cell proliferation assay, 96 hours (GI50). Format: cell-based. Conditions: Homo sapiens, DU-145, 96 hours post-treatment, triplicate. The method, boiled down: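 DU145 cells seeded at 5000 cells/well, treated with […] compound or vehicle for 96 h. Viability read by WST-1, expressed as percent of mean control, GI50 derived; triplicate experiments.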

SMILES strings stand for the structures. Some results are limits rather than exact numbers.

Among the data in US8394825B2, “Compound” (Sterix Limited, priority 2007, dated 2013) are GI50 and melting point values, retold here.

A word on the GI50: it is the concentration giving 50% growth inhibition. The term melting point denotes the temperature of the solid-liquid transition.

Consider `COc1cc2c(cc1O)CCN(Cc1cc(OC)c(OC)c(OC)c1)C2=O` [compound 163, 6-hydroxy-7-methoxy-2-(3,4,5-trimethoxybenzyl)-3,4-dihydro-2H-isoquinolin-1-one], for which the melting point is 168 to 169 °C. Moreover, in the data set on DU145 cells, the GI50 was more than 100 µM.

`COc1cccc(S(=O)(=O)N2CCc3cc(OCc4ccccc4)c(OC)cc3C2)c1` [compound 169, 6-Benzyloxy-7-methoxy-2-(3-methoxy-benzenesulfonyl)-1,2,3,4-tetrahydroisoquinoline] yielded a melting point of 124 to 125 °C. In the data set with DU145 cells, this compound yielded a GI50 of more than 100 µM.

In turn, `COc1cc2c(cc1OCc1ccccc1)CCN(S(=O)(=O)c1cccc(OC(F)(F)F)c1)C2` [compound 170, 6-Benzyloxy-7-methoxy-2-(3-trifluoromethoxy-benzenesulfonyl)-1,2,3,4-tetrahydroisoquinoline] displayed a melting point of 118 to 120 °C. The compound also returned a GI50 in the data set on DU145 cells of more than 100 µM.

Compound `COc1cc2c(cc1OCc1ccccc1)CCN(S(=O)(=O)c1cccc(C)c1)C2` [compound 171, 6-Benzyloxy-7-methoxy-2-(toluene-3-sulfonyl)-1,2,3,4-tetrahydroisoquinoline] yielded a melting point of 144 to 147 °C. This compound had a GI50 in the data set with DU145 cells of more than 100 µM.

In the case of `COc1cc2c(cc1OCc1ccccc1)CCN(S(=O)(=O)c1cccc(C(F)(F)F)c1)C2` [compound 172, 6-Benzyloxy-7-methoxy-2-(3-trifluoromethyl-benzenesulfonyl)-1,2,3,4-tetrahydroisoquinoline], the melting point is 136 to 138.5 °C. This compound came in with a concentration for 50% growth inhibition (GI50) in the data set on DU145 cells of more than 100 µM.

Regarding `COc1cccc(S(=O)(=O)N2CCc3cc(O)c(OC)cc3C2)c1` [compound 178, 6-Hydroxy-7-methoxy-2-(3-methoxy-benzenesulfonyl)-1,2,3,4-tetrahydroisoquinoline], the melting point was in the range of 168 to 170 °C. The compound further registered a GI50 in the data set with DU145 cells of more than 100 µM.

`COc1cc2c(cc1O)CCN(S(=O)(=O)c1cccc(OC(F)(F)F)c1)C2` [compound 179, 6-Hydroxy-7-methoxy-2-(3-trifluoromethoxy-benzenesulfonyl)-1,2,3,4-tetrahydroisoquinoline] yielded a melting point of 202 to 203 °C. This compound showed a GI50 in the data set on DU145 cells of more than 100 µM.

Compound `COc1cc2c(cc1O)CCN(S(=O)(=O)c1cccc(C)c1)C2` [compound 180, 6-Hydroxy-7-methoxy-2-(toluene-3-sulfonyl)-1,2,3,4-tetrahydroisoquinoline] had a melting point of 176 to 179 °C. The same compound returned a concentration for 50% growth inhibition (GI50) with DU145 cells of more than 100 µM.

Regarding `COc1cc2c(cc1O)CCN(S(=O)(=O)c1cccc(C(F)(F)F)c1)C2` [compound 181, 6-Hydroxy-7-methoxy-2-(3-trifluoromethyl-benzenesulfonyl)-1,2,3,4-tetrahydroisoquinoline], the melting point lay in the range of 178 to 180 °C. Also, the GI50 with DU145 cells is more than 100 µM.

`COc1cc2c(cc1O)CCN(S(=O)(=O)c1cccc(Cl)c1)C2` [compound 182, 2-(3-Chloro-benzenesulfonyl)-6-hydroxy-7-methoxy-1,2,3,4-tetrahydroisoquinoline]: the melting point lay within 175 to 178 °C. The compound also had a GI50 with DU145 cells of more than 100 µM.

`COc1cc2c(cc1O)CCN(S(=O)(=O)c1ccccc1C#N)C2` [compound 183, 2-(2-Cyano-benzenesulfonyl)-6-hydroxy-7-methoxy-1,2,3,4-tetrahydroisoquinoline] registered a melting point of 164 to 167 °C. Besides, in the data set on DU145 cells, the concentration for 50% growth inhibition (GI50) was more than 100 µM.

`COc1cc2c(cc1O)CCN(S(=O)(=O)c1ccccc1OC)C2` [compound 184, 6-Hydroxy-7-methoxy-2-(2-methoxy-benzenesulfonyl)-1,2,3,4-tetrahydroisoquinoline] showed a melting point of 140 to 142 °C. In the data set with DU145 cells, this compound returned a GI50 of more than 100 µM.

For `COc1ccc(S(=O)(=O)N2CCc3cc(O)c(OC)cc3C2)cc1` [compound 185, 6-Hydroxy-7-methoxy-2-(4-methoxy-benzenesulfonyl)-1,2,3,4-tetrahydroisoquinoline], the melting point lay within 147 to 149 °C. Besides, the concentration for 50% growth inhibition (GI50) in the data set with DU145 cells was more than 100 µM.
